Source: patent US4094984A, “6-Phenyl-8-bromo-4H-s-triazolo-[3,4C]-thieno-[2,3E]-1,4-diazepines and salts thereof” (Boehringer Ingelheim GmbH, priority 1974, dated 1978)

What was measured:
[1] = system: warm-blooded animals, such as mice and rats; assay: Standard pharmacodynamic test methods (pentetrazole antagonism, electroshock, conflicting situation, fighting test); assay type: in vivo; settings: in words
Experimental: The above-indicated pharmacodynamic properties of the compounds of this invention were ascertained by means of various standard test methods, namely the following:
(§1) 1. Pentetrazole antagonisim [M. I. Gluckmann, Curr. Ther. Res. 7, 721 (1965)]. The median effective dose (ED50) of the test compound is determined which cancels the lethal effect of 125 mgm/kg of pentylenetetrazole in 50% of the test animals; the pentylenetetrazole is administered intraperitoneally one hour after administration of the test compound.
2. Electroshock [J. E. P. Tomann et al, J. Neuro-Physiol. 9, 231 (1946)].
3. Conflicting Situation (Inhibition of Passive Avoidance Test) [J. Geller, Arch. Int. Pharmacodyn. 149,243 (1964)].
4. Fighting Test (Suppression of isolation-induced aggressiveness in mice) [Wirth et al; Arch. Int. Pharmcodyn. 115, 1-31 (1958)].
(§2) Albino mice (NMRI) having a body weight of 20 to 25 gm or albino rats (FW-49) having a body weight of 140 to 200 gm were used as the test animals, and the test compounds were administered perorally as a suspension in olive oil by means of an esophageal sound.

[2] = Toxicity, median lethal dose (Litchfield and Wilcoxon); set-up: species or system Mouse; albino mice (NMRI); settings: in vivo, po, mouse; for selectivity ratio: p.o., LD50 over pentylenetetrazole antagonism ED50, read-out: Therap. Index LD50:ED50
Experimental: 5. Toxicity [Litchfield and Wilcoxon, J. Pharmacol. Exp. Therap. 96, 99(1949)]. Determination of median lethal dose (LD50).
as §2

[3] = system: lethal effect of 125 mgm/kg of pentylenetetrazole; assay: Pentetrazole antagonism test (anticonvulsive activity); assay type: in vivo, Mouse; albino mice (NMRI); settings: po, 1 h; mouse; p.o.; 125 mgm/kg pentylenetetrazole i.p. one hour after test compound; values graphically determined
Experimental: as §1, §2

Row | Compound | effectiveness among the compounds of formula I [1] | LD50 [2] [mg/kg] | selectivity ratio [2] | ED50 [3] [mg/kg]
1 | Cc1nnc2n1-c1sc(Br)cc1C(c1ccccc1Cl)=NC2 [A, 8-bromo-6-(o-chlorophenyl)-1-methyl-4H-s-triazolo [3,4c]thieno[2,3e]1,4-diazepine] | particularly effective | > 3500 | > 50000 | 0.07
2 | Cc1nnc2n1-c1sc(Br)cc1C(c1ccccc1F)=NC2 [B, 8-bromo-6-(o-fluorophenyl)-1-methyl-4H-s-triazolo[3,4c]thieno[2,3e]1,4-diazepine] | – | > 3300 | > 22000 | 0.15
3 | Cc1nnc2n1-c1sc(Br)cc1C(c1ccccc1Br)=NC2 [C, 8-bromo-6-(o-bromophenyl)-1-methyl-4H-s-triazolo[3,4c]thieno[2,33]1,4-diazepine] | particularly effective | > 3500 | > 29200 | 0.12
4 | Cc1nnc2n1-c1sc(Br)cc1C(c1ccccc1)=NC2 [D, 8-bromo-6-phenyl-1-methyl-4H-s-triazolo[3,4]thieno[2,3e]1,4-diazepine] | – | – | – | 0.8
5 | CCc1cc2c(s1)-n1c(C)nnc1CN=C2c1ccccc1Cl [E, 8-ethyl-6-(o-chlorophenyl)-1-methyl-4H-s-triazolo[3,4c]thieno[2,3e]-1,4-diazepine, reference compound] | – | 3070 | 4390 | 0.7
6 | Cc1nnc2n1-c1sc(Cl)cc1C(c1ccccc1Cl)=NC2 [F, 8-chloro-6-(o-chlorophenyl)-1-methyl-4H-s-triazolo[3,4c]thieno[2,3e]1,4-diazepine, reference compound] | – | 2300 | 2300 | 1
7 | Cc1nnc2n1-c1sc(Cl)cc1C(c1ccccc1Br)=NC2 [G, 8-chloro-6-(o-bromophenyl)-1-methyl-4H-s-triazolo[3,4c]thieno[2,3e]1,4-diazepine, reference compound] | – | 2200 | 3140 | 0.7
8 | Cc1nnc2n1-c1sc(Cl)cc1C(c1ccccc1)=NC2 [H, 8-chloro-6-phenyl-1-methyl-4H-s-triazolo[3,4c]thieno[2,3e]1,4-diazepine, reference compound] | – | – | – | 3
